Laboratory results taken from patent publication US8664380B2, “Heterocyclic compound and use thereof” (Takeda Pharmaceutical Company Limited, priority 2008, dated 2014).
Counter-ions that a name gives are not always drawn.

Experiments:
plasma renin activity = experiment: Ex vivo plasma renin activity (PRA) test after oral administration; type: in vivo, Macaca fascicularis; settings: for inhibition at 1 mg/kg: Macaca fascicularis, po, 4 h, read-out: Macaca fascicularis plasma renin activity, PPA inhibitory activity (%, n = 3-7); for Macaca fascicularis plasma renin activity, PPA inhibitory activity (%, n = 3-7): male macaca fascicularis, 1 mg/kg orally in 0.5% methylcellulose, plasma 4 hr after administration, amended with vehicle group
Method: Male macaca fascicularis was used. […] PRA was calculated by the following formula.

Human renin = molecular target: T1, Human renin (Homo sapiens, UniProt P00797); experiment: Human renin inhibition; angiotensin I formed from angiotensinogen quantified by EIA; settings: for inhibition at 0.1 µM: read-out: Human renin inhibitory activity, inhibitory activity (%) at 0.1 μM; for Human renin inhibitory activity, inhibitory activity (%) at 0.1 μM: 0.1 μM test compound, substrate human angiotensinogen, 37° C. 30 min
T1 sequence (P00797 67-406): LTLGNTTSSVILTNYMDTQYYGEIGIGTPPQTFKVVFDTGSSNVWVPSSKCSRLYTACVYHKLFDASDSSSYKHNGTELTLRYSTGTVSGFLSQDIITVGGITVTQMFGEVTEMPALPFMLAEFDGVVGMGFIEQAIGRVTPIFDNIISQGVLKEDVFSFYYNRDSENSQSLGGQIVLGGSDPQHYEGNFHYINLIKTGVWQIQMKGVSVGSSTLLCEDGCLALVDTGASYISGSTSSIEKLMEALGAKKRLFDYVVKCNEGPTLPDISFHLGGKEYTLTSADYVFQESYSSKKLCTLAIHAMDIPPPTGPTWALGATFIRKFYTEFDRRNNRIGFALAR
Method: As a substrate for renin activity measurement, the angiotensinogen mentioned in (5) above was used. 1 μl each of the test compound (containing 100% DMSO) was added to each well of a 384-well plate (ABgene). Renin was diluted with a buffer solution for reaction (20 mM sodium phosphate (pH 7.4)) to a concentration of 57 pM, and 14 μl each of the dilution was added to each well. The dilution was left to stand at 37° C. for 10 min, and then 5 μl of each of a 6 μM solution of substrate angiotensinogen was added to each well to initiate the reaction. […] The amount of angiotensin I produced by an enzyme reaction was quantified by Enzyme Immuno Assay (EIA) described below.
Anti-angiotensin I antibody (Peninsula Laboratories Inc.) diluted 5,000-fold with PBS was added to each well of a 384 well black plate (Nalge Nunc International Co., Ltd.) by 25 μl, and left standing overnight at 4° C. to immobilize the antibody in the plate. The antibody solution was removed, PBS solution (100 μl) containing 1% BSA was added to each well, and the mixture was left standing at room temperature for 2 hr for blocking. The blocking solution was removed, and each well was washed 5 times with 100 μl of 0.05% Tween20-PBS. […] Then, a biotinated angiotensin I solution (AnaSpec, 15 μl) prepared to 1.6 nM with a buffer [20 mM tris-hydrochloric acid (pH 7.4), 150 mM sodium chloride, 0.01% BSA, 0.05% Tween20] was added to each well, mixed with a plate mixer and left standing at room temperature for 1 hr. The solutions were removed from each well, and each well was washed 5 times with 100 μl of 0.05% Tween20-PBS. Horseradish peroxydase Streptavidin (PIERCE Biotechnology inc., 25 μl) diluted to 100 ng/ml with a buffer [20 mM tris-hydrochloric acid (pH 7.4), 150 mM sodium chloride, 0.1% BSA, 0.05% Tween 20] was added to each well and the mixture was left standing at room temperature for 30 min. The solutions were removed from each well, and each well was washed 5 times with 100 μl of 0.05% Tween20-PBS. SuperSignal ELISA femto Maximum Sensitivity Substrate (PIERCE Biotechnology Inc.) was added by 25 μl and luminescence intensity was measured by EnVision (Perkin Elmer Inc.). An analytical curve was drawn from the luminescence intensity of wells containing an angiotensin I standard solution, and the amount of angiotensin I produced by an enzyme reaction was calculated and used as an index of renin activity.

## COCCCCn1c(C(=O)N(CC(C)C)[C@@H]2CNC[C@H]([C@@H](O)COC)C2)nc2ccccc21 [Example 73-1, N-{(3S,5R)-5-[(1R)-1-hydroxy-2-methoxyethyl]piperidin-3-yl}-1-(4-methoxybutyl)-N-(2-methylpropyl)-1H-benzimidazole-2-carboxamide dihydrochloride]
Plasma renin activity
  inhibition at 1 mg/kg: 77%
Human renin
  inhibition at 0.1 µM: 96%

## N-{(3S, 5R)-5-[(1R)-1-hydroxypropyl]piperidin-5-yl}-1-(4-methoxybutyl)-N-(2-methylpropyl)-1H-benzimidazole-2-carboxamide dihydrochloride [Example 75-2]
Plasma renin activity
  Macaca fascicularis plasma renin activity, PPA inhibitory activity (%, n = 3-7): 71%
Human renin
  Human renin inhibitory activity, inhibitory activity (%) at 0.1 μM: 90%

## N-{(3S,5R)-5-[(1S)-1-hydroxyethyl]piperidin-5-yl}-1-(4-methoxybutyl)-N-(2-methylpropyl)-1H-benzimidazole-2-carboxamide dihydrochloride [Example 74-1]
Plasma renin activity
  Macaca fascicularis plasma renin activity, PPA inhibitory activity (%, n = 3-7): 90%
Human renin
  Human renin inhibitory activity, inhibitory activity (%) at 0.1 μM: 94%

## COCCCCn1c(C(=O)N(CC(C)C)[C@@H]2CNC[C@H](CO)C2)nc2ccccc21 [Example 40, N-[(3S,5R)-5-(hydroxymethyl)piperidin-3-yl]-1-(4-methoxybutyl)-N-(2-methylpropyl)-1H-benzimidazole-2-carboxamide dihydrochloride]
Plasma renin activity
  inhibition at 1 mg/kg: 75%
Human renin
  inhibition at 0.1 µM: 97%

## COCCCCn1c(C(=O)N(CC(C)C)[C@@H]2CNC[C@H]([C@H](O)COC)C2)nc2ccccc21 [Example 73-2, N-{(3S,5R)-5-[(1S)-1-hydroxy-2-methoxyethyl]piperidin-3-yl}-1-(4-methoxybutyl)-N-(2-methylpropyl)-1H-benzimidazole-2-carboxamide dihydrochloride]
Plasma renin activity
  inhibition at 1 mg/kg: 90%
Human renin
  inhibition at 0.1 µM: 96%
